The source of these data is ChEMBL document CHEMBL3217686, “A new route to indoles via in situ desilylationSonogashira strategy: identification of novel small molecules as potential anti-tuberculosis agents” (Medchemcomm, 2011).

The subject of test [1] is Mycobacterium tuberculosis. The test is described as follows: Inhibition of Mycobacterium tuberculosis chorismate mutase expressed in Escherichia coli BL21 (DE3) assessed as conversion of chorismate to prephenate at 50 uM after 5 mins.
Test [2] deals with Mycobacterium tuberculosis. The test is described as follows: (§1) Inhibition of Mycobacterium tuberculosis chorismate mutase expressed in Escherichia coli BL21 (DE3) assessed as conversion of chorismate to prephenate after 5 mins.
A short description of test [3]: as §1.

Molecules are shown by their SMILES.

On to `Cc1ccc(S(=O)(=O)Nc2ccc(C(F)(F)F)cc2-c2cc3cc(C(F)(F)F)ccc3n2S(=O)(=O)c2ccc(C)cc2)cc1`, for which the inhibition (in general, the change of the read-out against control, counted positive when it falls) in test [1] amounted to 12%.
Take `Cc1ccc(NS(C)(=O)=O)c(-c2cc3cc(C)ccc3n2S(C)(=O)=O)c1`: in test [1], the inhibition was 42%.
On the same count and under the same terms, then `CS(=O)(=O)Nc1ccc([N+](=O)[O-])cc1-c1cc2cc([N+](=O)[O-])ccc2n1S(C)(=O)=O`, with 15%; and `CS(=O)(=O)Nc1ccc(C#N)cc1-c1cc2cc(C#N)ccc2n1S(C)(=O)=O`, with 20%; and `Cc1ccc(S(=O)(=O)Nc2ccccc2-c2cc3ccccc3n2S(=O)(=O)c2ccc(C)cc2)cc1`, with 12%.
`Cc1ccc(S(=O)(=O)Nc2ccc(Cl)cc2-c2cc3cc(Cl)ccc3n2S(=O)(=O)c2ccc(C)cc2)cc1`: the inhibition in test [1] turned out to be 10%.
Still for that read-out and setting: in the case of `CS(=O)(=O)Nc1ccc(Cl)cc1-c1cc2cc(Cl)ccc2n1S(C)(=O)=O` it was 45%.
For `CS(=O)(=O)Nc1ccc(F)cc1-c1cc2cc(F)ccc2n1S(C)(=O)=O`, the inhibition in test [1] was 69%; in test [2] it was “Dose-dependent effect”. For the same molecule, the half-inhibitory concentration (IC50) (in general, the concentration that gives 50% inhibition) in test [3] is 17 µM.
`Cc1ccc(S(=O)(=O)Nc2ccc(C)cc2-c2cc3cc(C)ccc3n2S(=O)(=O)c2ccc(C)cc2)cc1`: the inhibition in test [1] worked out at 15%.
Still for that read-out and setting: then `CC(=O)c1ccc(NS(C)(=O)=O)c(-c2cc3cc(C(C)=O)ccc3n2S(C)(=O)=O)c1`, with 30%; and `COc1ccc(NS(C)(=O)=O)c(-c2cc3cc(OC)ccc3n2S(C)(=O)=O)c1`, with 50%.
`COc1ccc(CCNc2c([N+](=O)[O-])cc(C(=O)O)cc2S(N)(=O)=O)cc1OC`: in test [3], the 50% inhibitory concentration (IC50) is under 10 µM.
Take `CS(=O)(=O)Nc1ccc(C(F)(F)F)cc1-c1cc2cc(C(F)(F)F)ccc2n1S(C)(=O)=O`: in test [1], the inhibition turned out to be 25%.
The same measure, in the same setting: then `Cc1ccc(S(=O)(=O)Nc2ccc(F)cc2-c2cc3cc(F)ccc3n2S(=O)(=O)c2ccc(C)cc2)cc1`, with 15%.
The same measure, in the same setting: then `CS(=O)(=O)Nc1ccccc1-c1cc2ccccc2n1S(C)(=O)=O`, with 40%.
